Experimental data from patent US10352938B2, “Macrocyclic HOPO chelators” (LUMIPHORE, INC., priority 2009, dated 2019).
Read-outs that look alike come from different tables or passages of the source. Marks after values point to notes of the source that are not given here.

What was measured:
[1] = cited from earlier work
[2] = cited from earlier work; for λ: absorption maximum
[3] = Calculation of Eu luminescence parameters (radiative lifetime, rate constants, efficiencies); assay type: physicochemical; details: for η^Eu: efficiency of metal centred luminescence; for knr: non-radiative rate constant; for τrad: pure radiative luminescence lifetime, aqueous TRIS pH = 7.4; for kr: radiative rate constant; for η^sens: sensitization efficiency
Protocol: In this equation, the ηISC ηET term is termed the sensitization efficiency, ηsens (ηsens=ηISC ηET). All the luminescence parameters τR (the pure radiative luminescence lifetime), kR and knR (the radiative and non-radiative constant rate) can be deduced. These parameters were calculated for five of the octadentate complexes and the model complex that present only one species in solution at pH=7.4 and are reported in Table 6.

[4] = cited from earlier work; for τ (D2O): first component where two are printed; for τ (H2O): first (longer) component
[5] = UV/visible absorption spectroscopy of Eu(III) complexes in TRIS buffer; assay type: physicochemical; details: TRIS buffer pH = 7.4
Text: Extinction Coefficient. A series of solutions of varied concentrations will be prepared from the solids based on mass and purity. The absorbance of each of these solutions at both 340 nm and at the appropriate acceptor wavelength will be measured and plotted according to Beer's Law (A=εcL where A is absorbance, ε is the extinction coefficient in M^−1 cm^−1, c is concentration, and L is path length in cm) with the fitted linear regression slope equal to […] on a plot of A as a function of C.
Each of the spectra have absorption maxima around 335-340 nm (FIG. 2). Those bands are composed of two electronic transitions; at higher energy, a purely π-π* transition and, at slightly lower energy (around ca. 320 nm), a π-π* transition with some n-π* character, as evidenced previously from TD-DFT calculations. […] This interaction gives maxima blue-shifting from 341 nm for [Eu(H(2,2)-1,2-HOPO)]^0 to 334 nm for [Eu(H(17O5,2)-1,2-HOPO)]^0 (as low as 332 nm for)[Eu(5LIN^Me-1,2HOPO)2]^0).

[6] = Luminescence quantum yield, emission and brightness in aqueous 0.1 M TRIS buffer; assay type: physicochemical; details: for øTot: 0.1M TRIS buffer pH = 7.4; for ϕTot: aqueous TRIS pH = 7.4, complexes with only one species; for Brightness: at maximum absorption, product of quantum yield and molar absorption coefficient, 0.1 M TRIS pH = 7.4; for overall quantum yield (in words): related to inner-sphere coordinated water
Protocol: Quantum Yield. Quantum yield will be measured using established methods. Fluorescence quantum yield Q are measured in diluted solution with an optical density lower than 0.1 using the following equation Qx/Qr=[Ar(λr)/Ax(λx)][nx^2/nr^2][Dx/Dr] were A is the absorbance at the excitation wavelength (λ), n the refractive index and D the integrated luminescence intensity. Subscripts “r” and “x” stand for reference and sample, respectively. References will be a quinine bisulfate in 1N sulfuric acid in aqueous solution (Qt=0.546)^1 and Ru(bpy)3 2C1 complexes in water solution (Qr=0.028)^2 for all complexes. A plot of integrated emission intensity (i.e. Dr) versus absorbance (i.e. Ar(λr)) yields a linear plot with a slope which can be equated to the reference quantum yield Qr. By analogy, for the unknown sample, a plot of integrated emission intensity (i.e. Dx) versus absorbance (i.e. Ax(λx)) yields a linear plot and Qx can then be evaluated. A minimum of at least two independent measurements will be averaged to derive a reliable value.

[7] = Triplet excited state energy from phosphorescence of Gd complexes at 77K; assay type: physicochemical; details: solid matrix (methanol/ethanol 1/4), using the Gd complexes
Protocol: Estimation of the energies of the ligand based triplet excited state were determined using the Gd(III) complexes. Gadolinium was chosen because it is a 4f^7 lanthanide cation having a similar 4f electronic configuration and size as the europium cation (4f^6), but lacking an accessible metal based low energy electronic excited state. At room temperature, only a broad weak emission centered between 380-400 nm can be seen for the Gd(III) complexes. […] At 77K, in solid matrix, an emission band at approx. 500 nm can be seen (FIG. 8). This emission, red-shifted compared to the singlet excited state, can be assigned to phosphorescence from the triplet excited state, lower in energy than the singlet excited state observed at room temperature. Selective time gated phosphorescence spectra (delay 0.1 ms) of the gadolinium complexes at 77K are depicted in FIG. 8.

[8] = cited from earlier work; for ϕEu: quantum yield
[9] = Luminescence lifetimes (TRIS buffer, deuterated water, 77K) and inner sphere water number q; details: for τ: aqueous TRIS pH = 7.4; for τ^D / τ (77K): first component; for q: improved Horrock's equations, first species
Protocol: Fluorescent decay signals can be acquired using an IBH DataStation Hub photon counting module and data analysis performed using the commercially available DAS 6 decay analysis software package from HORIBA Jobin Yvon IBH. Goodness of fit will be assessed by minimizing the reduced chi squared function, χ2, and a visual inspection of the weighted residuals. Each trace will use at least 10,000 points and the reported lifetime values result from at least three independent measurements.
In addition to the steady state emission spectra, the luminescence quantum yields and luminescence lifetimes of the Eu(III) complexes were also measured in aqueous solution with 0.1 M TRIS buffer pH=7.4 and in deuterated solution to estimate the number of inner sphere water molecule (i.e. q) using the improved Horrock's equations.
Luminescence lifetimes were also determined at 77K, in a solid matrix (Table 5), which have allowed us to determine whether back energy transfer between the donor triplet excited state and the acceptor manifold excited state of the lanthanide is present, or alternately whether quenching via low lying LMCT state occurs.

[10] = Stability titration (pEu) by competitive batch titration using DTPA; assay type: physicochemical
Protocol: Stability Titrations. The general procedure used to determine the pEu values of ligands was adapted from an already described study using Gd and are similar to that already reported for other complexes. Different volumes of a standardized DTPA stock solution were added to solutions of constant ligand, metal, and electrolyte concentrations. Concentrations of complexed ligand in each solution were determined by subtracting the remaining luminescence intensity after addition of DTPA to the initial luminescence intensity at identical pH and those concentrations were used as references for the analysis. Stability of compounds towards mM concentrations of EDTA and divalent cations will be assessed by incubation of the proposed molecules at nM concentration at room temperature in aqueous solutions of test ions. Time Resolved Fluorescent signal will be assessed at the outset of experiment and monitored over a minimum of 24 hours to determine signal change.

[11] = competitive batch titration using DTPA in 0.1M TRIS pH = 7.4 and 0.1M KCl
[12] = listed as [Eu(5LIN^Me-1,2-HOPO)2]
[13] = number of inner sphere water molecules, first species
[14] = listed as [Eu(5LIN^Me-1,2HOPO)2]^0
[15] = listed as [Eu(H(2,2)-1,2-HOPO)]^0
[16] = listed as [Eu(H(2,2)-1,2HOPO)]^0
[17] = listed as [Eu(H(3,2)-1,2HOPO)]^0

For `O=C(NCCN(CCCCN(CCNC(=O)c1cccc(=O)n1O)CCNC(=O)c1cccc(=O)n1O)CCNC(=O)c1cccc(=O)n1O)c1cccc(=O)n1O` [Eu(5LiN^Me), reference compound], the pEu [1, 11] is given as 17.3, the pEu ([1]; see reference [47], DTPA competition, 0.1M TRIS pH = 7.4, 0.1M KCl) is given as 17.3 and the λ [2] is given as 332 nm. The λ ([2]; see reference [47]) was 332 nm, the ε ([2]; extinction coefficient) was 18,750 M^1 cm^−1 and the ε ([2]; see reference [47], in M-1·cm-1 (unit assumed)) was 18,750. For the same compound, the “η^Eu” value [3, 12] was 0.412, the knr [3, 12] was 807 s⁻¹ and the τrad [3, 12] was 1770 μs. The kr [3, 12] was 566 s⁻¹, the “η^sens” value [3, 12] was 0.420 and the “τ (D2O)” value ([4]; D2O) was 1000 μs. The “τ (H2O)” value ([4]; H2O) was 728 μs, the q [4, 13] was 0.1 and the q ([4]; see reference [47]) was 0.1. The τ ([4]; see reference [47]) was 728 μs, the “τ^D” value ([4]; see reference [47]) was 1000 μs and the ε [5, 14] was 18,050 M^−1 · cm^−1. For the same compound, the “λ^maxabs” value [5, 14] was 332 nm, the øTot [6, 14] was 0.173^b and the ϕTot [6, 12] was 0.173. For the same compound, the Brightness ([6]; listed as [Eu(5LIN^Me-1,2-HOPO)2]^0) was 3400 M⁻¹ cm⁻¹, the Brightness [6, 14] was 3120 M⁻¹ cm⁻¹ and the “T0-0 (triplet excited state energy)” value [7, 14] was 22,010 cm^−1. The ϕEu [8] was 0.17, the ϕTot ([8]; see reference [47]) was 0.17 and the τ [9, 12] was 728 μs. The “τ^D” value ([9]; deuterated solution, listed as [Eu(5LIN^Me-1,2HOPO)2]^0) was 1000^b μs, the q ([9]; inner sphere water molecules, listed as [Eu(5LIN^Me-1,2HOPO)2]^0) was 0.1^b and the “τ (77K)” value ([9]; solid matrix at 77K (methanol/ethanol 1/4), listed as [Eu(5LIN^Me-1,2HOPO)2]^0) was 860 μs.
For `O=C(NCCN(CCCCN(CCNC(=O)c1cccc(=O)n1O)CCNC(=O)c1cccc(=O)n1O)CCNC(=O)c1cccc(=O)n1O)c1cccc(=O)n1O` [Eu(H2)], the pEu [1, 11] is listed as 21.2, the λ [2] is listed as 341 nm and the ε ([2]; extinction coefficient) is listed as 18,200 M^1 cm^−1. For the same compound, the “η^Eu” value ([3]; listed as [Eu(H(22)-1,2-HOPO)]) was 0.160, the knr ([3]; listed as [Eu(H(22)-1,2-HOPO)]) was 1750 s⁻¹ and the τrad ([3]; listed as [Eu(H(22)-1,2-HOPO)]) was 3000 μs. For the same compound, the kr ([3]; listed as [Eu(H(22)-1,2-HOPO)]) was 333 s⁻¹, the “η^sens” value ([3]; listed as [Eu(H(22)-1,2-HOPO)]) was 0.225 and the “τ (D2O)” value ([4]; D2O) was 1222 μs. The “τ (H2O)” value ([4]; H2O) was 480 μs, the q [4, 13] was 1.1 and the “λ^maxabs” value [5, 15] was 341 nm. For the same compound, the ε [5, 16] was 18,200 M^−1 · cm^−1, the “λ^maxabs” value [5, 16] was 341 nm and the øTot [6, 16] was 0.036. The ϕTot ([6]; listed as [Eu(H(22)-1,2-HOPO)]) was 0.036, the Brightness [6, 15] was 655 M⁻¹ cm⁻¹ and the Brightness [6, 16] was 655 M⁻¹ cm⁻¹. The “overall quantum yield (in words)” value [6] was “low quantum yields”, the “T0-0 (triplet excited state energy)” value [7, 16] was 21,980 cm^−1 and the ϕEu [8] was 0.036. For the same compound, the τ ([9]; listed as [Eu(H(22)-1,2-HOPO)]) was 480 μs, the “τ^D” value ([9]; deuterated solution, listed as [Eu(H(2,2)-1,2HOPO)]^0) was 1222 μs and the q ([9]; inner sphere water molecules, listed as [Eu(H(2,2)-1,2HOPO)]^0) was 1.1. For the same compound, the “τ (77K)” value ([9]; solid matrix at 77K (methanol/ethanol 1/4), listed as [Eu(H(2,2)-1,2HOPO)]^0) was 914 μs.
In the case of `O=C(NCCN(CCCCN(CCNC(=O)c1cccc(=O)n1O)CCNC(=O)c1cccc(=O)n1O)CCNC(=O)c1cccc(=O)n1O)c1cccc(=O)n1O` [Eu(H3)], the pEu [1, 11] is listed as 17.5, the λ [2] is listed as 339 nm and the ε ([2]; extinction coefficient) is listed as 17,700 M^1 cm^−1. The “τ (D2O)” value ([4]; D2O) was 811 μs, the “τ (D2O), second component” value ([4]; D2O, second component) was 369 μs and the “τ (H2O)” value ([4]; H2O) was 552 μs. The “τ (H2O), second component” value ([4]; H2O, second (shorter) component of biexponential decay) was 253 μs, the q [4, 13] was 0.3 and the “q, second species” value ([4]; number of inner sphere water molecules, second species) was 1.0. The ε [5, 17] was 17,700 M^−1 · cm^−1, the “λ^maxabs” value [5, 17] was 339 nm and the øTot [6, 17] was 0.037. The Brightness [6, 17] was 655 M⁻¹ cm⁻¹, the “overall quantum yield (in words)” value [6] was “low quantum yields” and the “T0-0 (triplet excited state energy)” value [7, 17] was 21,900 cm^−1. For the same compound, the “pEu value as compared to DTPA” value ([10]; in words) was “decreased”, the “decrease in stability relative to Eu(H8-2) and Eu(H11-3)” value ([10]; pEu difference) was 2.9 log unit and the ϕEu [8] was 0.037. The “τ^D” value ([9]; deuterated solution, listed as [Eu(H(3,2)-1,2HOPO)]^0) was 811; μs, the “τ^D, second component” value ([9]; deuterated solution, second component, listed as [Eu(H(3,2)-1,2HOPO)]^0) was 369 μs and the q ([9]; inner sphere water molecules, listed as [Eu(H(3,2)-1,2-HOPO)]^0) was 0.3. The q ([9]; inner sphere water molecules, listed as [Eu(H(3,2)-1,2HOPO)]^0) was 0.3;, the “q, second species” value ([9]; inner sphere water molecules, second species, listed as [Eu(H(3,2)-1,2HOPO)]^0) was 1.0 and the “τ (77K)” value ([9]; solid matrix at 77K (methanol/ethanol 1/4), listed as [Eu(H(3,2)-1,2HOPO)]^0) was 1040; μs. The “τ (77K), second component” value ([9]; solid matrix at 77K (methanol/ethanol 1/4), second component, listed as [Eu(H(3,2)-1,2HOPO)]^0) was 781 μs.
